Assays:
[1] = target: JAK2/JAK2 homdimeric complex (Homo sapiens (Human), UniProt O60674); assay: GM-CSF Induced pSTAT5 in Human PBMC; format: cell-based; details: GM-CSF 5 ng/mL for 20 minutes, pSTAT5 by MSD, read-out: PBMC_GMCSF_pSTAT5 IC50
[2] = target: human TYK2 (JH2domain-pseudokinase) (Homo sapiens (Human), UniProt P29597); assay: TYK2 JH2 Domain Binding Assay (KINOMEscan)
Method in brief: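 Pseudokinase domain binding was measured by qPCR of tagged, bead-retained kinase after 1 h room-temperature competition, with 0.9% DMSO and compound up to 30,000 nM in 3-fold steps. Hill-equation Kd, duplicate.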

[3] = target: Tyk2/JAK2 (heterodimeric complex) (Homo sapiens (Human), UniProt P29597); assay: IL-12 Induced pSTAT4 in Human PBMC; format: cell-based; details: 1.7 ng/mL IL-12
Text: The IL-12 Induced pSTAT4 assay evaluates the inhibition of IL-12 induced STAT4 phophorylation mediated by Tyk2/JAK2 (heterodimeric complex).

Tyk2 kinase domain (DH1) = Tyk2 kinase domain (DH1) (Homo sapiens (Human), UniProt P29597); assay: Tyk2 Radioactive Kinase Assay; format: biochemical; details: compound at 10 μM; ATP 10 μM; read-out: Tyk2 JH1% Inhibition @ 10 μM
Method in brief: (§1)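 Read-out is percent inhibition from a radioactive kinase reaction, measured with compound at 10 μM.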

JAK2 kinase domain (JH1) = JAK2 kinase domain (JH1) (Homo sapiens (Human), UniProt O60674); assay: JAK2 Radioactive Kinase Assay; format: biochemical; details: compound at 10 μM; ATP 10 μM; read-out: JAK2 JH1% Inhibition @ 10 μM
Method in brief: as §1

Sequence of JAK2 kinase domain (JH1) (O60674 849-1124): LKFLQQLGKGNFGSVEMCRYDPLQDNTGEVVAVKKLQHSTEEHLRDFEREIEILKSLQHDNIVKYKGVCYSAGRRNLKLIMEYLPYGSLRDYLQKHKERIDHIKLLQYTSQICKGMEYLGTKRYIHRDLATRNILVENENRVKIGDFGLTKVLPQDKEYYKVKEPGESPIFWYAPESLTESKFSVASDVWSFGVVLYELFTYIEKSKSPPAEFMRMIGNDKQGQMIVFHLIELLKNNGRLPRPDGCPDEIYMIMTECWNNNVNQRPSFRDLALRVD
Sequence of human TYK2 (JH2domain-pseudokinase) (P29597 556-888): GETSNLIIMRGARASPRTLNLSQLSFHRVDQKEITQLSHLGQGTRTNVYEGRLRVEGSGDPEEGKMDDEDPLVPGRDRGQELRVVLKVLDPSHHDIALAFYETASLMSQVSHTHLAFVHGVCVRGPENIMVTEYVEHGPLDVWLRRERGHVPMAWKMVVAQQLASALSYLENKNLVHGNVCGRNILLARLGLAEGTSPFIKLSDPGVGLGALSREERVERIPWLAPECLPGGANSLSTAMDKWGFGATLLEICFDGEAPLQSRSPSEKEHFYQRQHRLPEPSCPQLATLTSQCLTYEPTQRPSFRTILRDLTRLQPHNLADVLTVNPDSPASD
Sequence of Tyk2 kinase domain (DH1) (P29597 897-1176): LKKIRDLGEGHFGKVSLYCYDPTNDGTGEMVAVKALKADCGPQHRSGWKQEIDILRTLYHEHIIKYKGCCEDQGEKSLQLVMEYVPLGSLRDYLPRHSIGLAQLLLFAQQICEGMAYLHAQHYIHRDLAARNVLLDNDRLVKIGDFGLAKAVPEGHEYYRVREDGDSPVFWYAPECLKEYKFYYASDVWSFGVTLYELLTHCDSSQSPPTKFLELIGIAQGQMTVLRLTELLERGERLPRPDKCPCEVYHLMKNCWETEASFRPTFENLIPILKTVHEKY
Sequence of Tyk2/JAK2 (heterodimeric complex) (P29597 whole entry, other chains not shown): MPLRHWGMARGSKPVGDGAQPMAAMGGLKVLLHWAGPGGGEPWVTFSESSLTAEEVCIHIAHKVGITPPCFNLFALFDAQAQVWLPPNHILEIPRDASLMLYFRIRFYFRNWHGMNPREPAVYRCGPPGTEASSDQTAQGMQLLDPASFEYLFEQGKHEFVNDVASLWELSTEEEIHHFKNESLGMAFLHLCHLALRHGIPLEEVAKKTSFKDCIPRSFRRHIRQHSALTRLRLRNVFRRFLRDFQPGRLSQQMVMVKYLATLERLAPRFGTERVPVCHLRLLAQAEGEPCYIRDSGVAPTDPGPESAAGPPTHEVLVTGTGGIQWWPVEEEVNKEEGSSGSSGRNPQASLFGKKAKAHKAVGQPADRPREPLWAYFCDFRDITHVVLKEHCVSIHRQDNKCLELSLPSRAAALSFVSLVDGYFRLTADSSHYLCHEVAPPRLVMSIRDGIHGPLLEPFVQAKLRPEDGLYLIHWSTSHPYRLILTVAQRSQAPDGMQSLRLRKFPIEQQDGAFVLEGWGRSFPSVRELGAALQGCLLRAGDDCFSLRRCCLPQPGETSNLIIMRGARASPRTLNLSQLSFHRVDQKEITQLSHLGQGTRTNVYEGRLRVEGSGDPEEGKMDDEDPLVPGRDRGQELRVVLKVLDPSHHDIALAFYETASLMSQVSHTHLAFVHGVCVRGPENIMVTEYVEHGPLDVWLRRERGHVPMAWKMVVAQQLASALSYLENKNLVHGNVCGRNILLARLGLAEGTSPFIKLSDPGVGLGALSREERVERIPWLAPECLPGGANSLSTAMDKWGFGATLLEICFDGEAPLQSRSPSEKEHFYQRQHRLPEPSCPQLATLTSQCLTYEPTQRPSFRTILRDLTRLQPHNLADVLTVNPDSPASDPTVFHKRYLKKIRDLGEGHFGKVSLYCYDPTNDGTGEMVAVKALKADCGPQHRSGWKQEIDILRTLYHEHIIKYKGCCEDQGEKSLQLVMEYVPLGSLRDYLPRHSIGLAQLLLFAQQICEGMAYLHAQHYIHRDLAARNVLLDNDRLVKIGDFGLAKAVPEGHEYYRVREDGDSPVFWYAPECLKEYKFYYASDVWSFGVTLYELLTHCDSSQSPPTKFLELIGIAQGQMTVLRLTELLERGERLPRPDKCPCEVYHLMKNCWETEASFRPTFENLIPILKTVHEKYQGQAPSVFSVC
Sequence of JAK2/JAK2 homdimeric complex (O60674 whole entry, the tested form may be a part): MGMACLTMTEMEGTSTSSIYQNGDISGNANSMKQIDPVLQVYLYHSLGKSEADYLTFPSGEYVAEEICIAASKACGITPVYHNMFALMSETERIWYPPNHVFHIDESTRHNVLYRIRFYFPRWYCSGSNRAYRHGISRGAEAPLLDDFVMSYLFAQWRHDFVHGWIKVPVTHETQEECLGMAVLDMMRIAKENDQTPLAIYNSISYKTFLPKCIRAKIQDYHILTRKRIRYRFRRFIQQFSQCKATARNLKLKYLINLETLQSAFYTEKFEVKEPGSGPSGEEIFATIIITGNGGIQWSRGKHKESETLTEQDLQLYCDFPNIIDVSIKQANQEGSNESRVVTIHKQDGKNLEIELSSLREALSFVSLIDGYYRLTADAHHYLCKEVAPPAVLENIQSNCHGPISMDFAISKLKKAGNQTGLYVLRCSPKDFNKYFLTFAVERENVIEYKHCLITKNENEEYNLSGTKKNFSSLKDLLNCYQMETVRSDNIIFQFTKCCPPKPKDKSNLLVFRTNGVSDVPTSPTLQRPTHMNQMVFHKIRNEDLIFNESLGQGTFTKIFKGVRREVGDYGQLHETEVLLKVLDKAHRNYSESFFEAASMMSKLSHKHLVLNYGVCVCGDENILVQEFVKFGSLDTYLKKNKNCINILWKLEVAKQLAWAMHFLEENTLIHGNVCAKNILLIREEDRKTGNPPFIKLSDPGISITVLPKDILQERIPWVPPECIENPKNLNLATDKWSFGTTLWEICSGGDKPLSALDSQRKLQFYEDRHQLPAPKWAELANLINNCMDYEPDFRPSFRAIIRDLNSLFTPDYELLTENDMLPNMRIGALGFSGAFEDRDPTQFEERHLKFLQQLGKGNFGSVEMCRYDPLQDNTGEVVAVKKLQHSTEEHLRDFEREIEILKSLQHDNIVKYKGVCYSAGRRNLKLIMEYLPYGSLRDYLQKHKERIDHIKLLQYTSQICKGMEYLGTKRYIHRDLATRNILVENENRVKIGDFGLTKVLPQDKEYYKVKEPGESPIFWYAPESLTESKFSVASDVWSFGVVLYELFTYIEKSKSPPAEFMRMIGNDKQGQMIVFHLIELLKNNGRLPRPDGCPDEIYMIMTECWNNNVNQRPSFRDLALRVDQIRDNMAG
Sequence of JAK2/JAK2 homdimeric complex (P32927 17-897 partner): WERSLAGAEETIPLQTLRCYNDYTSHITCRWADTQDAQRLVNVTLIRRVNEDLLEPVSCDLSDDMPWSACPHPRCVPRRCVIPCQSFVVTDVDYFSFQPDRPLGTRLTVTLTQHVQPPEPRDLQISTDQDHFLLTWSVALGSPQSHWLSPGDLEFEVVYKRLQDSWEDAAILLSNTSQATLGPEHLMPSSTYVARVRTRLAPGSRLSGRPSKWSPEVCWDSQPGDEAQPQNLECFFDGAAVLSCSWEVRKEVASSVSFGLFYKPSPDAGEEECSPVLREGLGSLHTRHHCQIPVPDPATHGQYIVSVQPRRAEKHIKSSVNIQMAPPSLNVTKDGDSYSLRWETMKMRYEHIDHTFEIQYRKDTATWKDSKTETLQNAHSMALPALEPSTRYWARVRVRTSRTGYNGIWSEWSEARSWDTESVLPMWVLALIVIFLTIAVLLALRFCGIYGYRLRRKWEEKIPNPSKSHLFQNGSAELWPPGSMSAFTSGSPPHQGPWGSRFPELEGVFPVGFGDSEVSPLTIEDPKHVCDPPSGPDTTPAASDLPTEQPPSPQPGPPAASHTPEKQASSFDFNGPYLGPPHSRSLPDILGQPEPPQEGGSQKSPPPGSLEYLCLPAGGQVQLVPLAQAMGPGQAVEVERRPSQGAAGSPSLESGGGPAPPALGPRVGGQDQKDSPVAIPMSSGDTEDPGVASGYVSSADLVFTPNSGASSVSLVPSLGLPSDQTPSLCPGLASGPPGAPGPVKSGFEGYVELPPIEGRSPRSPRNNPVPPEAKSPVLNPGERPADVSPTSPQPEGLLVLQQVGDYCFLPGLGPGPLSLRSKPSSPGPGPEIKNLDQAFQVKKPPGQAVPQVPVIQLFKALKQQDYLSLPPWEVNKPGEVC

IC50 [1] [nM] | Kd [2] [nM] | IC50 [3] [nM] | inhibition at 10 µM (Tyk2 kinase domain (DH1)) [%] | inhibition at 10 µM (JAK2 kinase domain (JH1)) [%] | Structure (SMILES)
> 12500 | < 0.2 | < 100 | < 50 | < 50 | CNc1cc(Nc2cccn(-c3cccc(C(C)(C)O)n3)c2=O)nc2c(C(=O)NC3CCC3)cnn12 [I-156]
> 50000 | < 0.2 | < 100 | < 50 | < 50 | CNc1cc(Nc2cccn(-c3ccon3)c2=O)nc2c(C(=O)NC3CCC3)cnn12 [I-158]
> 12500 | < 0.2 | < 100 | < 50 | < 50 | CNc1cc(Nc2cccn(-c3cc(C)on3)c2=O)nc2c(C(=O)NC3CCC3)cnn12 [I-160]
> 12500 | < 0.2 | < 100 | < 50 | < 50 | CNc1cc(Nc2cccn(-c3cc(C)on3)c2=O)nc2c(C(=O)N[C@H]3C[C@H]3F)cnn12 [I-161]
> 2500 | < 0.2 | < 100 | < 50 | < 50 | CNc1cc(Nc2cccn(-c3cc(C)on3)c2=O)nc2c(C(=O)NC3CC3)cnn12 [I-162]
> 2500 | 0.2 to 1 | < 100 | < 50 | < 50 | CNc1cc(Nc2cccn(-c3ccc(N4CCOCC4)cn3)c2=O)nc2c(C(=O)NC3CCC3)cnn12 [I-163]
> 50000 | < 0.2 | < 100 | < 50 | < 50 | CNc1cc(Nc2cc(Cl)cn(-c3ccc(C)nn3)c2=O)nc2c(C(=O)N[C@H]3C[C@H]3F)cnn12 [I-164]
> 2500 | < 0.2 | < 100 | < 50 | < 50 | CNc1cc(Nc2cccn(-c3ccc(C4CC4)nn3)c2=O)nc2c(C(=O)N[C@H]3C[C@H]3F)cnn12 [I-165]
> 50000 | < 0.2 | < 100 | < 50 | < 50 | CNc1cc(Nc2cccnc2OC2CCC2)nc2c(C(=O)N[C@H]3C[C@H]3F)cnn12 [I-170]
> 50000 | < 0.2 | < 100 | < 50 | < 50 | [2H]C([2H])([2H])Oc1ncccc1Nc1cc(NC)n2ncc(C(=O)NC3CCC3)c2n1 [I-176]
> 12500 | < 0.2 | < 100 | < 50 | < 50 | [2H]C([2H])([2H])Oc1ncccc1Nc1cc(NC)n2ncc(C(=O)N[C@H]3C[C@H]3F)c2n1 [I-177]
> 2500 | < 0.2 | < 100 | < 50 | < 50 | CNc1cc(Nc2cccn([C@H]3CC[C@@H](N4CCOCC4)CC3)c2=O)nc2c(C(=O)NC3CCC3)cnn12 [I-182]
> 12500 | < 0.2 | < 100 | < 50 | < 50 | CNc1cc(-c2c[nH]c3c(C4CCOCC4)cc(Cl)cc23)nc2c(C(N)=O)cnn12 [I-190]
> 12500 | < 0.2 | < 100 | < 50 | < 50 | CNc1cc(Nc2cccn(C3CCN(CC(F)F)CC3)c2=O)nc2c(C(=O)NC3CCC3)cnn12 [I-192]
> 12500 | 0.2 to 1 | < 100 | < 50 | < 50 | CNc1cc(Nc2cc(F)cn(-c3ccccn3)c2=O)nc2c(C(=O)NC3CCC3)cnn12 [I-193]
> 12500 | < 0.2 | < 100 | < 50 | < 50 | CNc1cc(Nc2cc(F)cn(-c3ccccn3)c2=O)nc2c(C(=O)N[C@H]3C[C@H]3F)cnn12 [I-194]
> 2500 | < 0.2 | < 100 | < 50 | < 50 | CNc1cc(Nc2cc(F)cn(-c3ccc(C)nn3)c2=O)nc2c(C(=O)N[C@H]3C[C@H]3F)cnn12 [I-198]
> 50000 | 0.2 to 1 | 100 to 500 | < 50 | < 50 | CNc1cc(Nc2cc(F)cnc2OC(C)C)nc2c(C(=O)N[C@H]3C[C@H]3F)cnn12 [I-211]
> 50000 | < 0.2 | < 100 | < 50 | < 50 | CNc1cc(Nc2cccnc2OC2CC2)nc2c(C(=O)NC3CC3)cnn12 [I-215, 5-((2-cyclopropoxypyridin-3-yl)amino)-N-cyclopropyl-7-(methylamino) pyrazolo[1,5-a]pyrimidine-3-carboxamide]
> 12500 | < 0.2 | < 100 | < 50 | < 50 | CNc1cc(Nc2cccnc2OC2CC2)nc2c(C(=O)NC3CCC3)cnn12 [I-216]
> 50000 | < 0.2 | < 100 | < 50 | < 50 | CNc1cc(Nc2cccnc2OC2CC2)nc2c(C(=O)N[C@H]3C[C@H]3F)cnn12 [I-217]
> 12500 | < 0.2 | < 100 | < 50 | < 50 | CNc1cc(Nc2cccnc2OCCOC)nc2c(C(=O)NC3CCC3)cnn12 [I-219]
> 12500 | < 0.2 | < 100 | < 50 | < 50 | CNc1cc(Nc2cccnc2OCCOC)nc2c(C(=O)N[C@H]3C[C@H]3F)cnn12 [I-220]
> 2500 | 0.2 to 1 | < 100 | < 50 | < 50 | CNc1cc(-c2cn(C(C)C)c3ncccc23)nc2c(C(N)=O)cnn12 [I-222, 5-(1-isopropyl-1H-pyrrolo[2,3-b]pyridin-3-yl)-7-(methylamino)pyrazolo[1,5-a]pyrimidine-3-carboxamide]
> 12500 | < 0.2 | < 100 | < 50 | < 50 | CNc1cc(-c2cn(C(C)C)c3ncccc23)nc2c(C(=O)NC3CC3)cnn12 [I-223]
> 50000 | < 0.2 | < 100 | < 50 | < 50 | CNc1cc(-c2cn(C(C)C)c3ncccc23)nc2c(C(=O)NC3CCC3)cnn12 [I-224]
> 50000 | < 0.2 | < 100 | < 50 | < 50 | CNc1cc(Nc2cc(C)cn(-c3cnn(C)c3)c2=O)nc2c(C(=O)NC3CC3)cnn12 [I-233]
> 2500 | < 0.2 | < 100 | < 50 | < 50 | CNc1cc(Nc2cc(C)cn(-c3cnn(C)c3)c2=O)nc2c(C(=O)NC3CCC3)cnn12 [I-234]
> 2500 | < 0.2 | < 100 | < 50 | < 50 | CNc1cc(Nc2cc(C)cn(-c3cnn(C)c3)c2=O)nc2c(C(=O)N[C@H]3C[C@H]3F)cnn12 [I-235]
> 2500 | < 0.2 | < 100 | < 50 | < 50 | CNc1cc(Nc2cccc(N3CCOC3=O)n2)nc2c(C(=O)N[C@H]3C[C@H]3F)cnn12 [I-236]
